Experiments:
[1] = biological target: T1, 5HT3 receptor (Rattus norvegicus, UniProt P35563); assay: Inhibition of the von Bezold-Jarisch chemoreflex evoked by 5-HT in the anesthetized rat (in vivo 5HT3 antagonist activity); conditions: 5-HT 20 ug/kg i.v.; for % inhibition of the Bezold-Jarisch reflex: mean ± S.E.M., 6 animals, * p < 0.01 vs controls; for ED50: iv, read-out: ED50 (limits)
T1 construct: in the anesthetized rat; from tissue; host or cells: whole anesthetized rat (in vivo); endogenous receptor
T1 sequence (P35563 24-483): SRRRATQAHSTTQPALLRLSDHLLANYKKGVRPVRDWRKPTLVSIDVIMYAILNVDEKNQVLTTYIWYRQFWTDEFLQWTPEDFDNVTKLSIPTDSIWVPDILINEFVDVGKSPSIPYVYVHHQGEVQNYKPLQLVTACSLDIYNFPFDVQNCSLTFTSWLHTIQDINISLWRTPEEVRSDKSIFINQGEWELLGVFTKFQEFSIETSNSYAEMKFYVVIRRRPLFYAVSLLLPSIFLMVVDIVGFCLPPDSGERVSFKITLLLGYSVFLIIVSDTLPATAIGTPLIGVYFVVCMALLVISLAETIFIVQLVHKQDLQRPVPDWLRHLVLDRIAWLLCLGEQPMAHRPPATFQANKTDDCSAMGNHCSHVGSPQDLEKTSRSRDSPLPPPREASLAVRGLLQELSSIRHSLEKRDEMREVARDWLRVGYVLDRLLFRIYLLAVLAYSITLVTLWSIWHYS
Protocol: Pharmacol. 326, 36-44 (1984).
The following Table I reports the in vivo 5HT3 antagonist activity data obtained in this test for a representative group of compounds of the invention.
Inhibition of the Bezold-Jarisch reflex elicited by 5-HT
(20 ug/kg i.v.) by i.v. FCE-compounds in the anesthetized
Values are mean ± S.E.M. from 6 animals.
*p < 0.01 vs controls (Dunnett's test).

[2] = biological target: T2, serotonin 5-HT3 receptors (Rattus norvegicus, UniProt P35563); assay: Affinity for serotonin 5-HT3 receptors in rat entorhinal cortex, radioligand 3H-BRL 43694 binding
T2 construct: in rat entorhinal cortex; from tissue; host or cells: rat entorhinal cortex
T2 sequence (P35563 24-483): T1 sequence (P35563 24-483)
Protocol: The affinity for serotonin 5-HT3 receptors was assessed for instance in rat entorhinal cortex using a selective radioligand 3H-BRL 43694 as described by Nelson and Thomas (1989).
NELSON D. R. and THOMAS D. R., [3H]-BRL 43694 (Granisetron), a specific ligand for 5-HT3 binding sites in rat brain cortical membranes, Biochem. Pharmac., 38, 1693-1695, 1989. The affinity data for a representative group of compounds of the invention are set out in following Table II.

| Compound | % inhibition of the Bezold-Jarisch reflex ([1]; dose 10 μg/kg i.v.) [%] | % inhibition of the Bezold-Jarisch reflex ([1]; dose 30 μg/kg i.v.) [%] | % inhibition of the Bezold-Jarisch reflex ([1]; dose 100 μg/kg i.v.) [%] | ED50 [1] [µg/kg] | IC50 [2] [nM] | % inhibition of the Bezold-Jarisch reflex ([1]; dose 1 μg/kg i.v.) [%] | % inhibition of the Bezold-Jarisch reflex ([1]; dose 3 μg/kg i.v.) [%] | % inhibition of the Bezold-Jarisch reflex ([1]; dose 0.5 μg/kg i.v.) [%] | % inhibition of the Bezold-Jarisch reflex ([1]; dose 2 μg/kg i.v.) [%] | % inhibition of the Bezold-Jarisch reflex ([1]; dose 8 μg/kg i.v.) [%] |
| --- | --- | --- | --- | --- | --- | --- | --- | --- | --- | --- |
| Cc1[nH]cnc1CN1CCN(c2cccc(C#N)c2)C1=O [FCE 28276, 1-(5-methyl-1H-imidazol-4-yl)methyl-3-(3-cyanophenyl)-imidazolidin-2-one] | 14.3 ± 9.2 | 44.5 ± 7.3 | 87.7 ± 7.0 | 32.2 | 11 | – | – | – | – | – |
| O=C1N(Cc2c[nH]cn2)CCN1c1ccccc1 [FCE 28307, 1-(1H-imidazol-4-yl)methyl-3-phenyl-imidazolidin-2-one] | – | – | 56.1 ± 10.3 | – | 44 | – | – | – | – | – |
| Cc1[nH]cnc1CN1CCN(c2cccc(Cl)c2)C1=O [FCE 27733, 1-(5-methyl-1H-imidazol-4-yl)methyl-3-(3-chlorophenyl)-imidazolidin-2-one] | 89.7 ± 1.8 | – | – | 5.26 | 2.1 | 7.0 ± 6.0 | 37.8 ± 5.8 | – | – | – |
| Cc1[nH]cnc1CN1CCN(c2cc(Cl)cc(Cl)c2)C1=O [FCE 28232, 1-(5-methyl-1H-imidazol-4-yl)methyl-3-(3,5-dichlorophenyl)-imidazolidin-2-one] | – | – | – | 2.2 | 0.42 | 18.2 ± 2.4 | – | 1.5 ± 4.8 | 55.5 ± 7.1 | 88.7 ± 1.8 |
| Cc1cc(C)cc(N2CCN(Cc3nc[nH]c3C)C2=O)c1 [FCE 28356, 1-(5-methyl-1H-imidazol-4-yl)methyl-3-(3,5-dimethylphenyl)-imidazolidin-2-one] | – | – | 88.6 ± 2.4 | – | 1.8 | – | – | – | – | – |
| Cc1[nH]cnc1CN1CCN(c2cccc(Br)c2)C1=O [FCE 28159, 1-(5-methyl-1H-imidazol-4-yl)methyl-3-(3-bromophenyl)-imidazolidin-2-one] | 64.2 ± 5.0 | 84.4 ± 4.2 | – | 6.5 | 2.7 | – | 30.0 ± 5.9 | – | – | – |
| Cc1cccc(N2CCN(Cc3nc[nH]c3C)C2=O)c1 [FCE 28355, 1-(5-methyl-1H-imidazol-4-yl)methyl-3-(3-methylphenyl)-imidazolidin-2-one] | 83.3 ± 3.5 | – | – | 3.1 | 4 | 14.6 ± 7.3 | 51.1 ± 4.3 | – | – | – |
| CSc1cccc(N2CCN(Cc3nc[nH]c3C)C2=O)c1 [FCE 28278, 1-(5-methyl-1H-imidazol-4-yl)methyl-3-(3-methylthiophenyl)-imidazolidin-2-one] | 16.8 ± 8.1 | 54.7 ± 2.3 | 85.8 ± 1.2 | 28.6 | 6.7 | – | – | – | – | – |
| Cc1[nH]cnc1CN1CCN(c2ccccc2)C1=O [FCE 28277, 1-(5-methyl-1H-imidazol-4-yl)methyl-3-phenyl-imidazolidin-2-one] | 79.4 ± 4.1 | – | – | 3.9 | 14 | 14.7 ± 3.8 | 37.4 ± 6.5 | – | – | – |

— patent US5424328A, “Phenyl-imidazolidinone derivatives” (Farmitalia Carlo Erba S.r.l., priority 1992, dated 1995)
